From patent publication US7118873B2, “Polynucleotides encoding cellular transporters and methods of use thereof” (The University of Connecticut, priority 2000, dated 2006)
Read-outs that look alike come from different tables or passages of the source. One block for each compound: values may come before it.

Legend:
INDY = target: T1, INDY (Drosophila melanogaster, UniProt Q9VVT2); assay: Inhibition of [14C] succinate uptake in Xenopus oocytes injected with Indy mRNA; type: cell-based
T1 construct: expressed in transfected cells; host or cells: Xenopus laevis oocytes (stage V and VI) injected with Indy mRNA
Protocol: Stage V and VI oocytes from Xenopus laevis were dissected and defoliculated. The oocytes were injected with 25–50 ng of Indy mRNA 1 day after isolation. Nutrient uptake was measured 6 to 7 days later. The oocytes were maintained at 18° C. in Barth's solution containing […] gentamycin sulfate, 2.5 mM sodium pyruvate, and 5% heat-inactivated horse serum (Coady et al., Arch. Biochem. Biophys. 283: 130–134, 1990; Pajor and Wright, J. Biol. Chem 26:, 3557–3560, 1992).
Transport measurements were performed as in Pajor, J. Biol. Chem. 270: 5779–5785, 1995. Groups of oocytes were first washed in choline buffer to remove the serum. Transport was initiated by adding 0.4 ml of [^14C] succinate or [^14C] citrate in buffer A. Buffer A comprises 100 mM NaCl, 2 mM KCl, 1 mM MgCl2, and 10 mM HEPES-Tris (pH 7.5). Buffer B is the same as buffer A except the NaCl is replaced by 100 mM choline Cl. For other cation replacement studies, the sodium was replaced by equimolar amounts of the other cations, as their chloride salts. At the completion of the transport time, the nutrient uptake was stopped with 4 washes of 4 ml of ice-cold buffer B. To count the amount of [^14C] taken up by the oocyte, each oocyte was dissolved in 0.5 ml of 10% SDS, and the [^14C] assayed by scintillation counting.
Studies of sodium dicarboxylate cotransporters have indicated a broad range of specificity for di- and tri-carboxylic acids and the exclusion of monocarboxylic acids. The transport specificity of Indy was thus determined as the ability of various compounds to inhibit the uptake of [^14C] succinate. The test inhibitors were added at a concentration of 1 mM, approximately a 100-fold excess of inhibitor.
The relative affinity of INDY for succinate and citrate was determined by adding a constant amount of [^14C] succinate and increasing concentrations of citrate to oocytes expressing INDY.
To further characterize INDY, inhibitors of transport were added to the Indy oocyte system. P-aminohippuric Acid (PAH) is a reference compound used to study transport mechanisms. 4,4′-Diisothyocyanostilbene-2,2′-disulfonic acid (DIDS) is a specific inhibitor of channels. Phloretin is an inhibitor of channels that is known to block protein kinase C.

[1] = target: T2, rat sodium dicarboxylate cotransporter (Rattus norvegicus, UniProt P70545); conditions: cited from earlier work
T2 sequence (P70545 1-587): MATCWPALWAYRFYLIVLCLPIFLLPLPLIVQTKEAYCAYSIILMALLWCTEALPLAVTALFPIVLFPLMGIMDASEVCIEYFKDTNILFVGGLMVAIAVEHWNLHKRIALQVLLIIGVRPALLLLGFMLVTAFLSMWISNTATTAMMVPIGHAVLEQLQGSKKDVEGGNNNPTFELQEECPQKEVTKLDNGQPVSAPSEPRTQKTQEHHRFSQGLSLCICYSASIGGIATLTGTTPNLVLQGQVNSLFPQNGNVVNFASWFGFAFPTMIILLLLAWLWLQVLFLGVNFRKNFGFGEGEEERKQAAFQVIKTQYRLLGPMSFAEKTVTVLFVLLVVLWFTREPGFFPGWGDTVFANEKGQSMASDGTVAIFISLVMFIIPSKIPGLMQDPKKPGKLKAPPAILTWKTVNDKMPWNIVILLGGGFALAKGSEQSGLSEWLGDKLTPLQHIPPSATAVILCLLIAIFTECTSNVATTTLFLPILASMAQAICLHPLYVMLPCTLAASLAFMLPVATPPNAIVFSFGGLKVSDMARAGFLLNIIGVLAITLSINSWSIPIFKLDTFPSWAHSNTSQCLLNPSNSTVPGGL

[2] = test inhibitor at 1 mM, approximately 100-fold excess, FIG. 14

T1 sequence (Q9VVT2 19-590 limits assumed): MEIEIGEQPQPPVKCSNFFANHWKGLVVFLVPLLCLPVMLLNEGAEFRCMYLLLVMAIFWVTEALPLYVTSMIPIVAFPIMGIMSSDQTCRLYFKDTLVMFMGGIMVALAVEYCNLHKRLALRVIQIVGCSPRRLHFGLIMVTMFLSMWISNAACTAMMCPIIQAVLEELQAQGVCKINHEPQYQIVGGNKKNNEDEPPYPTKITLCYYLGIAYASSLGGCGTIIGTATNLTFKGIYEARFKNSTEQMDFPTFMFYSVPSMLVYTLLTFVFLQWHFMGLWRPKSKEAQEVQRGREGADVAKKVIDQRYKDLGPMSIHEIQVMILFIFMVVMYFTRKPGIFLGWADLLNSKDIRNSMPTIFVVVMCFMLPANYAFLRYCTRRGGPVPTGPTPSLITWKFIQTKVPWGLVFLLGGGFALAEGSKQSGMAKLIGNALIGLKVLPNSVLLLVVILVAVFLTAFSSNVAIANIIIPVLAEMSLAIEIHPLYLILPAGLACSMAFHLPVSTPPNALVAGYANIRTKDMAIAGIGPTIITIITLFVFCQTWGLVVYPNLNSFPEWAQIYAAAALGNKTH

Structure (SMILES): O=C(O)CCC(=O)C(=O)O [alpha-ketoglutarate]
- inhibition of [14C] succinate uptake (INDY; [2]): ~100%

Structure (SMILES): O=S(=O)(O)O [sulfate]
- inhibition of succinate transport (in words) (INDY; [2]): little inhibition

Structure (SMILES): O=C(O)CC(O)(CC(=O)O)C(=O)O [citrate]
- inhibition at 100 µM (INDY; citrate at 0.1 mM, FIG. 17): ~50%
- inhibition at 1000 µM (INDY; citrate at 1 mM, FIG. 17, read-out: inhibition of succinate uptake): ~90%
- inhibition of succinate uptake (in words) (INDY; citrate at 10 mM, FIG. 17): completely inhibits
- inhibition at 1000 µM (INDY; test inhibitor at 1 mM, approximately 100-fold excess, FIG. 14, read-out: inhibition of [14C] succinate uptake): ~100%

Structure (SMILES): N[C@@H](CCC(=O)O)C(=O)O [glutamate]
- inhibition of succinate transport (in words) (INDY; [2]): little inhibition

Structure (SMILES): O=C(CCc1ccc(O)cc1)c1c(O)cc(O)cc1O [phloretin, Phloretin]
- effect on succinate transport (in words) (INDY; 1 mM phloretin, FIG. 18): no effect
- effect on inward and outward currents in sodium-dependent transport [1]: inhibit both inward and outward currents

The remaining lines, values ahead:

- inhibition of succinate transport (in words) (INDY; [2]): little inhibition
Structure (SMILES): CC(O)C(=O)O (centres unmarked) [lactate]

- inhibition of [14C] succinate uptake (INDY; [2]): ~100%
Structure (SMILES): O=C(O)/C=C/C(=O)O [fumarate]

- effect on succinate transport (in words) (INDY; 10 mM PAH, FIG. 18): no effect
Structure (SMILES): Nc1ccc(C(=O)NCC(=O)O)cc1 [PAH, P-aminohippuric Acid]

- inhibition of succinate transport (INDY; 0.1 mM DIDS, FIG. 18): 80%
Structure (SMILES): O=S(=O)(O)c1cc(N=C=S)ccc1C=Cc1ccc(N=C=S)cc1S(=O)(=O)O [DIDS, 4,4′-Diisothyocyanostilbene-2,2′-disulfonic acid]

- inhibition of [14C] succinate uptake (INDY; [2]): ~100%
Structure (SMILES): O=C(O)CCC(=O)O [succinate]
